Test results: patent publication US20220031596A1, “ANTI-AGING AGENT AND ANTI-AGING METHOD” (priority 2018, published 2022)

Experiments:
Type in all cases: in vivo, human
[1] = test system: growth hormone concentration in the plasma; experiment: Evaluation of growth hormone secretion promoting effect (plasma growth hormone, 24-week oral ingestion); conditions: for growth hormone concentration in the plasma, 0 weeks (before ingestion) / growth hormone concentration in the plasma, 24 weeks (after ingestion) / growth hormone concentration in the plasma, Change rate (24 weeks - 0 weeks): High Dose Group (200 mg/daily, oral), mean±SD; for growth hormone concentration in the plasma, 0 weeks (before ingestion): baseline
Description: In order to confirm a change in the growth hormone quantity before and after ingestion of the nicotinamide mononucleotide, a test was conducted on healthy males and females aged 50 to 70 years.
As a sample of Working Example 2, a capsule formulation containing the nicotinamide mononucleotide and starch (200 mg of the nicotinamide mononucleotide in 4 capsules) (manufactured by SHINKOWA PHARMACEUTICAL Co., Ltd.) was used.
(§1) Each group consisting of five healthy males and females aged 50 to 70 years in an unbiased age group ingested the above capsule formulation once a day by 4 capsules for 24 weeks (total 10 subjects, 200 mg/daily ingestion). In order to conduct appropriate evaluations, those who had been regularly using medical products for chronic diseases, those who had been consuming healthy foods that may affect clinical research, and those who were currently participating in other clinical researches or clinical trials or had participated in other clinical researches or clinical trials within the last three months were excluded from the subject for the evaluation. The capsule formulations were ingested at 10 am (between meals and fasting state) together with water or lukewarm water (oral administration).
Measurement of the growth hormone quantity in the plasma was conducted by requesting the measurement to an external public organization according to a usual method. FIGS. 4a to 4c indicate transitions of the growth hormone concentration (ng/ml) in the plasma for 24 weeks. FIG. 4a represents the transitions of the whole subjects; FIG. 4b represents the transitions of the male subjects; FIG. 4c represents the transitions of the female subjects. Further, FIGS. 5a to 5c indicate change rates (%) of the blood growth hormone concentration up to 24 weeks when the nicotinamide mononucleotide was orally administered to the subjects for 24 weeks. FIG. 5a represents the change rates of the whole subjects; FIG. 5b represents the change rates of the male subjects; FIG. 5c represents the change rates of the female subjects. Further, Table 2 indicates the numerical values of the growth hormone concentration (ng/ml) in the plasma before the ingestion of the nicotinamide mononucleotide (0 weeks) and after the ingestion of the nicotinamide mononucleotide (24 weeks). Note that the numerical values represent mean values±standard deviation.

[2] = test system: mRNA expression level of the sirtuin gene Sirt1; experiment: Evaluation of sirtuin 1 (Sirt1) secretion promoting effect (blood Sirt1 mRNA by real-time PCR, 24-week oral ingestion); conditions: for mRNA expression level of the sirtuin gene Sirt1 (relative to that of GAPDH), 0 weeks (before ingestion) / mRNA expression level of the sirtuin gene Sirt1 (relative to that of GAPDH), 24 weeks (after ingestion) / mRNA expression level of the sirtuin gene Sirt1 (relative to that of GAPDH), Change rate (24 weeks - 0 weeks): blood, High Dose Group (200 mg/daily, oral), mean±SD; for mRNA expression level of the sirtuin gene Sirt1 (relative to that of GAPDH), 0 weeks (before ingestion): baseline
Description: In order to confirm a change in the Sirt1 quantity before and after ingestion of the nicotinamide mononucleotide, a test was conducted on healthy males and females aged 50 to 70 years.
As a sample of Working Example 13, a capsule formulation containing the nicotinamide mononucleotide and starch (200 mg of the nicotinamide mononucleotide in 4 capsules) (manufactured by SHINKOWA PHARMACEUTICAL Co., Ltd.) was used.
as §1, with “above high dose” for “above”
Measurement of the Sirt1 quantity in the blood was conducted by requesting the measurement to an external public organization according to a usual method. The mRNA expression level of the sirtuin gene Sirt1 was analyzed by a real-time PCR method with the blood collected before the ingestion of the nicotinamide mononucleotide (0 weeks) and after the ingestion of the nicotinamide mononucleotide (24 weeks). Note that, in this analysis, cDNA was purified on the day when the blood sample was collected and stored at −80° C. until all samples were prepared. The samples were then subjected to the real-time PCR method at the same time. The expression level was normalized using GAPDH as a reference gene. Table 12 indicates the numerical values of the mRNA expression level of the sirtuin gene Sirt1 (relative to that of GAPDH). Note that the numerical values represent mean values±standard deviation.

[3] = test system: cortisol concentration in the plasma; experiment: Evaluation of cortisol secretion promoting effect (plasma cortisol, 24-week oral ingestion); conditions: for cortisol concentration in the plasma, 0 weeks (before ingestion) / cortisol concentration in the plasma, 24 weeks (after ingestion) / cortisol concentration in the plasma, Change rate (24 weeks - 0 weeks): High Dose Group (200 mg/daily, oral), mean±SD; for cortisol concentration in the plasma, 0 weeks (before ingestion): baseline
Description: In order to confirm a change in the cortisol quantity before and after ingestion of the nicotinamide mononucleotide, a test was conducted on healthy males and females aged 50 to 70 years.
As a sample of Working Example 11, a capsule formulation containing the nicotinamide mononucleotide and starch (200 mg of the nicotinamide mononucleotide in 4 capsules) (manufactured by SHINKOWA PHARMACEUTICAL Co., Ltd.) was used.
as §1, with “above high dose” for “above”
Measurement of the cortisol quantity in the plasma was conducted by requesting the measurement to an external public organization according to a usual method. FIGS. 22a to 22c indicate transitions of the cortisol concentration […] in the plasma for 24 weeks. FIG. 22a represents the transitions of the whole subjects; FIG. 22b represents the transitions of the male subjects; FIG. 22c represents the transitions of the female subjects. Further, FIGS. 23a to 23c indicate change rates (%) of the blood cortisol concentration up to 24 weeks when the nicotinamide mononucleotide was orally administered to the subjects for 24 weeks. FIG. 23a represents the change rates of the whole subjects; FIG. 23b represents the change rates of the male subjects; FIG. 23c represents the change rates of the female subjects. Further, Table 10 indicates the numerical values of the cortisol concentration (μg/dl) in the plasma before the ingestion of the nicotinamide mononucleotide (0 weeks) and after the ingestion of the nicotinamide mononucleotide (24 weeks). Note that the numerical values represent mean values±standard deviation.

NC(=O)c1ccc[n+]([C@@H]2O[C@H](COP(=O)([O-])O)[C@@H](O)[C@H]2O)c1 [nicotinamide mononucleotide]
growth hormone concentration in the plasma, 0 weeks (before ingestion) ([1]; Female): 0.91 ± 0.28 ng/mL
growth hormone concentration in the plasma, 24 weeks (after ingestion) ([1]; Female): 2.14 ± 2.22 ng/mL
growth hormone concentration in the plasma, Change rate (24 weeks - 0 weeks) ([1]; Female): 1.24 ± 2.31 ng/mL
growth hormone concentration in the plasma, 0 weeks (before ingestion) ([1]; Male): 0.21 ± 0.12 ng/mL
growth hormone concentration in the plasma, 24 weeks (after ingestion) ([1]; Male): 2.41 ± 3.44 ng/mL
growth hormone concentration in the plasma, Change rate (24 weeks - 0 weeks) ([1]; Male): 2.20 ± 3.34 ng/mL
growth hormone concentration in the plasma, 0 weeks (before ingestion) ([1]; Whole Subjects): 0.56 ± 0.42 ng/mL
growth hormone concentration in the plasma, 24 weeks (after ingestion) ([1]; Whole Subjects): 2.28 ± 2.73 ng/mL
growth hormone concentration in the plasma, Change rate (24 weeks - 0 weeks) ([1]; Whole Subjects): 1.72 ± 2.76 ng/mL
growth hormone concentrations in the plasma, effect of ingestion (in words) ([1]; oral, 200 mg/daily, 24 weeks, FIGS. 4a-4c, 5a-5c): increased
mRNA expression level of the sirtuin gene Sirt1 (relative to that of GAPDH), 0 weeks (before ingestion) ([2]; Female): 1.01 ± 0.17
mRNA expression level of the sirtuin gene Sirt1 (relative to that of GAPDH), 24 weeks (after ingestion) ([2]; Female): 1.72 ± 0.98
mRNA expression level of the sirtuin gene Sirt1 (relative to that of GAPDH), Change rate (24 weeks - 0 weeks) ([2]; Female): 1.70 ± 0.90
mRNA expression level of the sirtuin gene Sirt1 (relative to that of GAPDH), 0 weeks (before ingestion) ([2]; Male): 1.65 ± 0.99
mRNA expression level of the sirtuin gene Sirt1 (relative to that of GAPDH), 24 weeks (after ingestion) ([2]; Male): 3.69 ± 2.82
mRNA expression level of the sirtuin gene Sirt1 (relative to that of GAPDH), Change rate (24 weeks - 0 weeks) ([2]; Male): 4.67 ± 5.13
mRNA expression level of the sirtuin gene Sirt1 (relative to that of GAPDH), 0 weeks (before ingestion) ([2]; Whole Subjects): 1.33 ± 0.75
mRNA expression level of the sirtuin gene Sirt1 (relative to that of GAPDH), 24 weeks (after ingestion) ([2]; Whole Subjects): 2.71 ± 2.25
mRNA expression level of the sirtuin gene Sirt1 (relative to that of GAPDH), Change rate (24 weeks - 0 weeks) ([2]; Whole Subjects): 3.18 ± 3.81
expression level of Sirt1 in the blood, effect of ingestion (in words) ([2]; oral, 200 mg/daily, 24 weeks): increased
cortisol concentration in the plasma, 0 weeks (before ingestion) ([3]; Female): 6.82 ± 1.20 µg/dL
cortisol concentration in the plasma, 24 weeks (after ingestion) ([3]; Female): 10.56 ± 5.92 µg/dL
cortisol concentration in the plasma, Change rate (24 weeks - 0 weeks) ([3]; Female): 3.74 ± 6.16 µg/dL
cortisol concentration in the plasma, 0 weeks (before ingestion) ([3]; Male): 7.97 ± 2.50 µg/dL
cortisol concentration in the plasma, 24 weeks (after ingestion) ([3]; Male): 10.30 ± 4.47 µg/dL
cortisol concentration in the plasma, Change rate (24 weeks - 0 weeks) ([3]; Male): 2.33 ± 3.38 µg/dL
cortisol concentration in the plasma, 0 weeks (before ingestion) ([3]; Whole Subjects): 7.40 ± 1.94 µg/dL
cortisol concentration in the plasma, 24 weeks (after ingestion) ([3]; Whole Subjects): 10.43 ± 4.95 µg/dL
cortisol concentration in the plasma, Change rate (24 weeks - 0 weeks) ([3]; Whole Subjects): 3.04 ± 4.74 µg/dL
cortisol concentrations in the plasma, effect of ingestion (in words) ([3]; oral, 200 mg/daily, 24 weeks, FIGS. 22a-22c, 23a-23c): increased
